In brackets after ≈: the same amount, converted by molar mass.
Assay: Toxicity against Artemia larvae
Format: organism-based
Settings: in vivo, read-out: LD50 (the source's name)

| SMILES | LC50 |
| --- | --- |
| CCCC[C@H](C)C[C@]1(CC)C=C(CC)/C(=C/C(=O)OC)O1 | 7 µg/mL (≈ 23.8 µM) |
| CCCC[C@H](C)CC1(CC)C=C(CC)C(CC(=O)OC)OO1 (some centres undefined) | 70 µg/mL (≈ 224 µM) |
| CCCC[C@H](C)CC1(CC)C=C(CC)C(CC(=O)OCC)OO1 (some centres undefined) | > 100 µg/mL |
| CCCC[C@H](C)CC(CC)C[C@@]1(CC)C[C@H](CC)[C@H](CC(=O)O)OO1 (some centres undefined) | 15 µg/mL (≈ 42.1 µM) |

Reference: ChEMBL document CHEMBL1150935, “New polyketides from the sponge Plakortis sp” (J Nat Prod, 1998)
